How the values were obtained:
DDR signaling [1] = test: DDR signaling immunoblot in HEK293 cells; type: cell-based, human; settings: HEK293, 2 μM KU-55933 1 hr, cGAMP 16 hours
ATM = ATM (Homo sapiens, UniProt Q13315); settings: recombinant ATM and TBK1; 25 μM ATM inhibitor, 10 μM TBK1 inhibitor
Protocol: 2× laemmli buffer was added and the mixture which was then incubated at 98° C. for 10 mins. The protein mixtures were separated on a 7.5% SDS/PAGE gel and immunoblotted for anti phospho-ATM (Ser1981) antibody to assess phosphorylation status if ATM. To test the effect of inhibitors on recombinant TBK1 mediated ATM phosphorylation, 25 μM ATM inhibitor, and 10 μM TBK1 inhibitor and was pre-incubated with recombinant ATM or recombinant TBK1 (TBK1 inhibitor) before setting up the kinase assay as described above.

HEK293-TrLR cells = test: HDR and NHEJ assay using Traffic Light Reporter; type: cell-based, human
Protocol: TrLR-integrated HEK293 cells were selected through exposure to 5 μg/ml puromycin for 2 weeks. […] 8 hours following this procedure, cells were transfected with pCVL SFFV d14GFP Donor (Addgene Cat #31475), pCBASceI (Addgene Cat #26477)), or Donor+SceI using Lipofectamine 3000. 72 hours post-transfection, cells were trypsinized, collected, and analyzed with an Attune NxT flow cytometer (Thermofisher). To quantify the DNA repair events, ˜10,000-30,000 cells were acquired on an Attune NxT cytometer and analyzed using FCS Express software. Single cell events were determined by gating on the area against the width of the forward scatter pulse signal. Debris removal was performed by excluding events with very low forward and side scatter. For determining % of GFP and mCherry positive cells we established positive and negative populations using mock transfections as negative controls and GFP or mCherry transfected samples as Fluorescence Minus One controls.

cell cycle progression = test: Cell cycle analysis by flow cytometry (BrdU, propidium iodide); type: cell-based, human
Protocol: Cells were washed with cold PBS and resuspended in 0.5 ml PBS to achieve a single cell suspension. Cells were fixed in a tube containing 4.5 ml 70% ethanol kept at 4° C. overnight. Cells were collected by centrifugation at 500 g for 5 minutes and washed twice with PBS. Washed cells were then stained with 1 ml of freshly prepared staining solution containing propidium iodide (10 μg/ml), DNase-free RNaseA (100 μg/ml), and 0.1% (v/v) Triton X-100 before being subjected to flow cytometry measurement. To determine percentage of cell population in various cell cycle stage, ˜10,000-30,000 cells were acquired on an Attune NxT cytometer and analyzed using FCS Express software. Cell cycle analysis was performed on propidium iodide stained cells and single cell events were determined by gating on the area against the width of the propidium iodide pulse signal. DNA cell cycle modeling and fit was performed using the Multicycle AV plugin (Phoenix Flow Systems).
Cells were fixed and stained to detect BrdU incorporation by flow cytometry following the manufacturer's protocol (FITC BrdU Flow Kit, BD Biosciences, Cat #559619).

DDR signaling [2] = test: DDR signaling immunoblotting in THP1 cells; settings: for DDR induction in cells lacking STING or TBK1: STING−/− or shTBK1 cells
DDR signaling [3] = test: DDR signaling immunoblotting in primary mouse embryonic fibroblasts; settings: for DDR signaling (γH2AX): cGAS−/− and cGAS GS198AA primary MEFs vs WT
Nematostella vectensis = test: DDR in starlet sea anemones; type: in vivo; settings: whole animals; cGAMP in digitonin solution 10 minutes; doxorubicin 2 μM; 16 hours
Description: Starlet sea anemones: Wild type, laboratory maintained, Self-sustaining Nematostella vectensis culture containing of 3-6 months old male and female animals (Putnam et al., 2007) was a kind gift from Timothy J. Jegla (Penn State University Department of Biology). They were maintained in 6-well plates containing water with Instant Ocean® Aquarium Sea Salt (50 gm/l) and fed brine shrimp. […] Permeabilization solution was removed and the animals returned to maintenance sea salt water. Doxorubicin was added to the maintenance sea salt water to a final concentration of 2 μM. 16 hours post treatment. N. vectensis were collected and washed once with cold PBS before the addition of 200 μl RIPA buffer. Samples were homogenized by sonication and centrifuged at 4° C. to remove debris. Soluble lysates were quantified for protein analysis by western blot.

Crassostrea virginica = test: DDR in oysters after adductor muscle injection; type: in vivo; settings: hemocytes; cGAMP 25 μg/50 gm, doxorubicin 1 μg/50 gm oyster weight, 16 hours
Protocol: Oysters: Wild adult eastern oysters (Crassostrea virginica) of both male and female sexes ranging from 2 cm-7 cm in length (1 to 3 years in age) were collected from a natural oyster reef on Virgnia's Eastern Shore. Following collection, the diploid oysters were placed on ice and transported approximately 3 h to the University of Virginia main campus in Charlottesville, VA. There they were stored in an aerated aquarium containing water supplemented with Instant Ocean® Aquarium Sea Salt (50 gm/l). […] Treated oysters were kept at 4° C. in the dark for 16 hours after which they were shucked, had their hemolymph/tissues harvested for analysis by western blotting, and dead oyster and shell were disposed of.

cGAS = test: HA-cGAS co-immunoprecipitation in HA-cGAS-reconstituted cGAS−/− MEFs; type: cell-based, mouse; settings: doxorubicin 2 μM 6 hours
Protocol: Immunoprecipitation: Cells were treated as indicated and were lysed in RIPA buffer. Co-immunoprecipitation experiments were conducted using Dynabeads™ Protein G Immunoprecipitation Kits (Thermo Fisher, Catalogue #10007D) as per the manufacturer's protocol. 50 μl of Dynabead slurry was added to a microfuge tube and placed on a magnet to separate the solution. Beads were washed in 200 μl PBS with 0.1% Tween20 (3 times) before 5 μg antibody along with […] protein lysate diluted in PBS-tween20 to a final volume of 500 μl was added to the beads and incubated overnight at 4° C. with rotation. Beads were collected by magnetic separation and washed 3 times with wash buffer (10 mM Tris; adjust to pH 7.4, 1 mM EDTA; pH 8.0, 150 mM NaCl). Finally, bead-bound proteins were eluted by boiling in 1× Laemmli buffer and samples analyzed by western blotting.

cGAMP = test: 2′3′-cGAMP ELISA in THP1 cells; type: cell-based, human; settings: WT THP1, 1 μM Doxorubicin, 1 hr
cGAS, STING, and TBK1 = settings: doxorubicin 2 μM 6 hours; cGAMP 16 hours
Protocol: Cell Fractionation: THP1 cells were treated as indicated, then nuclear and cytoplasmic fractions were isolated using NE-PER™ Nuclear and Cytoplasmic Extraction Reagents (Thermo Scientific, Catalogue #78833) following the manufacturer's protocol. 20 g of cytoplasmic and nuclear proteins were used for immunoblotting.

γH2AX = γH2AX immunofluorescence (human RPE, THP1 cells); type: cell-based
Protocol: Immunofluorescence Staining: 16,500 adherent cells/cm^2 were plated on a gelatin coated 8-chamber slide (VWR, Catalogue #62407-296) and treated as indicated. Media was removed and cells were washed with 1×PBS with Ca^2+/Mg^2+ and fixed with 4% PFA for 20 minutes. Fixed cells were permeabilized with PBS+0.1% Triton-X and washed 3 times with PBS+0.1% Tween20. After treatment as indicated, non-adherent THP1 cells were collected by centrifugation, washed in cold PBS and fixed in PFA. Post-fixation, they were washed with PBS, spotted on gelatin coated “PTFE” Printed Slides (Electron Microscopy Sciences, Cat #63424-06), and air-dried. For γH2AX staining, permeabilized cells were blocked in Serum-free DAKO Protein Block (Agilent, Catalogue #X0909) for 1 hr at room temperature. Cells were incubated in primary antibody (γH2AX, 1:500; anti-HA, 1:100; Table 1) in DAKO antibody diluent at 4° C. overnight on a rocker platform. U2OS-STING cells undergoing Rad51 staining were first fixed in methanol for 20 minutes in −20° C., blocked for 1 hr with donkey block (2% normal donkey serum, 1% BSA, 0.1% Triton X 100, 0.05% Tween20, 0.05% Sodium Azide in PBS), then finally incubated in an anti-Rad51 antibody overnight at 4° C. (Bio-academia Cat #70-001, 1:6000 in 5% milk in TBST). For RPA70 staining, cells were fixed in 4% PFA at room temperature for 20 minutes and blocked in Cell Signaling blocking buffer (1×PBS/5% normal donkey serum/0.3% Triton™ X-100) for 1 hr in room temperature then incubated in an RPA70 antibody (Cell Signaling Cat #2267, 1:50 in blocking buffer) overnight at 4° C. Primary antibody was washed 3 times and incubated with secondary antibodies (Invitrogen, Alexa 555, 488) for 1 hr at room temperature. Coverslips were mounted on the cells with ProLong™ Gold Antifade mounting media with DAPI (Thermofisher, Catalogue #P36935). All images were obtained by confocal microscopy (Nikon, C2).

PARylation = test: PolyADP-ribosylation (PARylation) immunoblot; type: cell-based, human; settings: THP1, 2 mM NAM 18 hours, 250 μM H2O2 10 minutes
Description: Cells were collected by centrifugation, washed once with ice-cold PBS, lysed in RIPA buffer and analyzed by western blot to detect PARylation using pADPr Antibody (Santa Cruz sc-56198).

PARP = PARP activity assay; type: cell-based, human
Protocol: Post cGAMP treatment, cells were collected by centrifugation and washed with cold PBS once and resuspended in Cell Extraction Buffer. PARP activity was measured using the Chemiluminescent Assay Kit (R&D, Catalog Number: 4685-096-K) following manufacturer's protocol.

NAD^+ = test: NAD+ quantification; type: cell-based, human; settings: THP1, 2 mM, 4 mM and 8 mM NAM, 18 hours
U2OS-STING cells = test: RAD51 and RPA70 foci in EdU+ U2OS-STING cells; type: cell-based, human; settings: EdU-positive S-phase cells, Camptothecin 5 μM 16 hours
Protocol: Immunofluorescence Staining: 16,500 adherent cells/cm^2 were plated on a gelatin coated 8-chamber slide (VWR, Catalogue #62407-296) and treated as indicated. Media was removed and cells were washed with 1×PBS with Ca^2+/Mg^2+ and fixed with 4% PFA for 20 minutes. Fixed cells were permeabilized with PBS+0.1% Triton-X and washed 3 times with PBS+0.1% Tween20. After treatment as indicated, non-adherent THP1 cells were collected by centrifugation, washed in cold PBS and fixed in PFA. Post-fixation, they were washed with PBS, spotted on gelatin coated “PTFE” Printed Slides (Electron Microscopy Sciences, Cat #63424-06), and air-dried. For γH2AX staining, permeabilized cells were blocked in Serum-free DAKO Protein Block (Agilent, Catalogue #X0909) for 1 hr at room temperature. Cells were incubated in primary antibody (γH2AX, 1:500; anti-HA, 1:100; Table 1) in DAKO antibody diluent at 4° C. overnight on a rocker platform. […]
EdU incorporated cells were detected by confocal microscopy after Click-iT® EdU labeling following the manufacturer's protocol (Click-iT™ EdU Alexa Fluor™ 594 Imaging Kit, Thermo Fisher Cat #C10339).

Sequence of ATM (Q13315 whole entry): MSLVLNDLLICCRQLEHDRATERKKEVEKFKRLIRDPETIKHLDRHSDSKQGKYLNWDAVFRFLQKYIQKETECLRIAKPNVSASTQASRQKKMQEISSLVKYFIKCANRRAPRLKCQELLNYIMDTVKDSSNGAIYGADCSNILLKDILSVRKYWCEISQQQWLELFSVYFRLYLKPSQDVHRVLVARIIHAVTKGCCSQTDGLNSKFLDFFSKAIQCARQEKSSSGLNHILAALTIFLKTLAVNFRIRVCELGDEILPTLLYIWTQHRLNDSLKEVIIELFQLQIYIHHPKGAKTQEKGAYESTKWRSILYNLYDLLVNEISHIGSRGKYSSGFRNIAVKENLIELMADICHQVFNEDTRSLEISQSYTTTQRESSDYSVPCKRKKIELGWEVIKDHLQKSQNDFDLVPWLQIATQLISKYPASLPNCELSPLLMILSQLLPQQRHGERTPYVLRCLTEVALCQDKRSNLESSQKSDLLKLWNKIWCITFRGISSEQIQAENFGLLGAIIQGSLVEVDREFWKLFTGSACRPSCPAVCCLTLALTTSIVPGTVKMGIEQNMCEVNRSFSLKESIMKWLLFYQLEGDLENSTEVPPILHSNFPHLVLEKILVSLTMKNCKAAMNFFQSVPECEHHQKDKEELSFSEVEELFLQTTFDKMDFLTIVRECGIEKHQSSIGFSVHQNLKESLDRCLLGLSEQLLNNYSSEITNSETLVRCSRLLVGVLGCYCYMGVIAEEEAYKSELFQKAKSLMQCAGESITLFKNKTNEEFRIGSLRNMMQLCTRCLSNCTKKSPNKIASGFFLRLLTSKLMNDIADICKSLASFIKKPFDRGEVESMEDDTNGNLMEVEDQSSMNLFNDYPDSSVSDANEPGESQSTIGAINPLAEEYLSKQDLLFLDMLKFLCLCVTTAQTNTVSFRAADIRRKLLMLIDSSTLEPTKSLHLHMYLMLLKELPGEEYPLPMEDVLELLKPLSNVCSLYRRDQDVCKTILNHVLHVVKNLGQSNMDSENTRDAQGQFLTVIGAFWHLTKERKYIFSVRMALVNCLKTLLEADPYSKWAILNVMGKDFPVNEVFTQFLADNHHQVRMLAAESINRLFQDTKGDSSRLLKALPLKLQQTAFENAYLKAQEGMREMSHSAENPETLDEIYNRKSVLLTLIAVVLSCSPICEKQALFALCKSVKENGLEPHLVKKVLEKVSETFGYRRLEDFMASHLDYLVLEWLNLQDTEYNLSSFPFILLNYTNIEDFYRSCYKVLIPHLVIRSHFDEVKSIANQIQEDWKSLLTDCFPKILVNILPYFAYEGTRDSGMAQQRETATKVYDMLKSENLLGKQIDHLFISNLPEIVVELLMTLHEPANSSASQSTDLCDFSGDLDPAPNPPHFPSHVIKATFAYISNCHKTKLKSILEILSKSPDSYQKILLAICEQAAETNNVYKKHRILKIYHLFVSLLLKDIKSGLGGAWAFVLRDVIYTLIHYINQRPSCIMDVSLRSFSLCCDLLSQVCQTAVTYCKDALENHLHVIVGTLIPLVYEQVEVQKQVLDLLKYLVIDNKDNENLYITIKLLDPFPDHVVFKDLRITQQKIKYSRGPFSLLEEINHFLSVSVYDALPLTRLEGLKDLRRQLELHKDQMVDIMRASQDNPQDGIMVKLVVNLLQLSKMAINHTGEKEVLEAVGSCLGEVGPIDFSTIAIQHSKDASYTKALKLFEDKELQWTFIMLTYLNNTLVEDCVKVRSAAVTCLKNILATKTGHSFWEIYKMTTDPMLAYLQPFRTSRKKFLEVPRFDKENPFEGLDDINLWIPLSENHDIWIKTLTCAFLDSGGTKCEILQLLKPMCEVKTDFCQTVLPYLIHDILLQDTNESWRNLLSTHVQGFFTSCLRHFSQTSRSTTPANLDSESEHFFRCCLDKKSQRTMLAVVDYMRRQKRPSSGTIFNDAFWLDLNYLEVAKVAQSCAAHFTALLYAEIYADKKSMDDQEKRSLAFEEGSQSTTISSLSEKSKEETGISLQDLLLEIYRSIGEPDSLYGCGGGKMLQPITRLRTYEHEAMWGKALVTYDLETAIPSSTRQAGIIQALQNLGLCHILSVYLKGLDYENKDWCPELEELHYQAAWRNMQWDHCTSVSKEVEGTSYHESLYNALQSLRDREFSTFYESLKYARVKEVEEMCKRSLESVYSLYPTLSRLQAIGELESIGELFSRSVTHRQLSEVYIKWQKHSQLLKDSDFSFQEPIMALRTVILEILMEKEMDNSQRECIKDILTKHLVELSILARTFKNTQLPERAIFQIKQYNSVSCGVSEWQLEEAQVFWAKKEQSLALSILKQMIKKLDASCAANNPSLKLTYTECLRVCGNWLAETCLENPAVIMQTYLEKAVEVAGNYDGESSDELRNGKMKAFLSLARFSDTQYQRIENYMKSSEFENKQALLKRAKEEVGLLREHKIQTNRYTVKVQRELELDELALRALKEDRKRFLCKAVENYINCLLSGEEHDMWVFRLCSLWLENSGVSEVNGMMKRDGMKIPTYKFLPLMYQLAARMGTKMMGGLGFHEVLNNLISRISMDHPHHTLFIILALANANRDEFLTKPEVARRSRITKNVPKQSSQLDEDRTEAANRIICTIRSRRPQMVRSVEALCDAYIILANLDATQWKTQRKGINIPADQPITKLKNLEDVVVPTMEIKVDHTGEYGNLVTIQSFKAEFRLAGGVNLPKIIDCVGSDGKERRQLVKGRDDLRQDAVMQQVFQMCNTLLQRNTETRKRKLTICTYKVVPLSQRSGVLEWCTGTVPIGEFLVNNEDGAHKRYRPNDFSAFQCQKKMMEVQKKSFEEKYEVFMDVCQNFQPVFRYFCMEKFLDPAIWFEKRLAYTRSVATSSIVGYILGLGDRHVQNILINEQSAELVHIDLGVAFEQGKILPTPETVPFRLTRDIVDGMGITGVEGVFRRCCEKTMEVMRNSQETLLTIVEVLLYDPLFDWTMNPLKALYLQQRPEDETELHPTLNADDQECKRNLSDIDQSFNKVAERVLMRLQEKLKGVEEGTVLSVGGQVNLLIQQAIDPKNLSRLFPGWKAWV

## O=c1cc(-c2cccc3c2Sc2ccccc2S3)oc(N2CCOCC2)c1 [KU55933]
DDR signaling [1]
  effect on cGAMP-induced γH2AX and pCHK2: suppressed the ability of cGAMP to induce γH2AX and pCHK2
ATM
  ATM phosphorylation on Ser1981: suppressed
HEK293-TrLR cells; 25 μM KU-55933
  HDR under ATM inhibition alone: impeded HDR in its own right
Cell cycle progression; WT THP1, 25 μM KU-55933, cGAMP 24 hours
  effect of ATM inhibitor on cGAMP-induced G1 arrest: suppressed the ability of cGAMP to induce γH2AX and pCHK2 (FIG. 9A) and to induce G1 arrest

## O=C(NCCCNc1nc(Nc2cccc(CN3CCOCC3)c2)ncc1C1CC1)C1CCC1 [MRT67307]
DDR signaling [2]; THP1 pretreated with 2 μM TBK1 inhibitor, cGAMP 16 hours
  effect on cGAMP-induced phosphorylation of ATM (S1981), CHK2, and H2AX: suppressed cGAMP-induced phosphorylation of ATM (S1981), CHK2, and H2AX
ATM
  ATM phosphorylation on Ser1981: suppressed

## CC[C@@]1(O)C(=O)OCc2c1cc1n(c2=O)Cc2cc3ccccc3nc2-1 [camptothecin]
DDR signaling [2]
  DDR induction in cells lacking STING or TBK1: abrogated
DDR signaling [2]; cGAS−/− THP1, camptothecin 2 μM 4 hours
  phosphorylation of H2AX, ATM, and CHK2: all suppressed
DDR signaling [3]
  DDR signaling (γH2AX): suppressed both in cGAS^−/− and cGAS^(GS198AA) primary MEFs

## COc1cccc2c1C(=O)c1c(O)c3c(c(O)c1C2=O)C[C@@](O)(C(=O)CO)C[C@@H]3O[C@H]1C[C@H](N)[C@H](O)[C@H](C)O1 [doxorubicin]
Nematostella vectensis
  TBK1 phosphorylation (pTBK1): TBK1 phosphorylation
  γH2AX: elevated levels of γH2AX
Crassostrea virginica
  TBK1 phosphorylation (pTBK1): TBK1 phosphorylation
  γH2AX: elevated levels of γH2AX
DDR signaling [2]
  DDR induction in cells lacking STING or TBK1: abrogated
cGAS
  cGAS association with ATM: detected no such interactions
  cGAS complex with γH2AX: nuclear translocated cGAS was found in a complex with γH2AX
cGAMP
  cGAMP production: reacted by producing cGAMP
cGAS, STING, and TBK1
  nuclear enrichment of TBK1, pTBK1, STING: promoted nuclear enrichment of TBK1 but not STING
  nuclear enrichment of cGAS: nuclear enrichment of cGAS
γH2AX; doxorubicin-treated THP1 cells
  γH2AX foci in cGAS- and STING-deficient cells: significant reduction in the intensity of γH2AX foci
γH2AX; human RPE cells, doxorubicin 2 hours, cGAMP or HT-DNA 6 hours
  γH2AX staining pattern: catalyzed the formation of γH2AX foci characteristic of DSB induction
DDR signaling [3]
  DDR signaling (γH2AX): suppressed both in cGAS^−/− and cGAS^(GS198AA) primary MEFs

## NC(=O)c1cccnc1 [nicotinamide]
PARylation
  effect on cGAMP-driven inhibition of protein PARylation: abrogated cGAMP-driven inhibition of protein PARylation and HDR
PARP; THP1, 2 mM, 4 mM and 8 mM NAM, 18 hours
  effect on cGAMP-driven inhibition of cellular PARP enzymatic activity: overcame cGAMP-driven inhibition of cellular PARP enzymatic activity
NAD^+
  cellular NAD^+ levels with nicotinamide supplementation: Boosting cellular NAD^+ levels
HEK293-TrLR cells; 2 mM and 4 mM NAM
  effect on cGAMP-driven inhibition of HDR: abrogated cGAMP-driven inhibition of protein PARylation and HDR

## CNCc1ccc(-c2[nH]c3cc(F)cc4c3c2CCNC4=O)cc1 [rucaparib]
PARP; THP1, cGAMP 6 hours, Rucaparib 10 μM, 6 hr
  PARP enzymatic activity in cell lysates: lower PARP enzymatic activity
HEK293-TrLR cells; 1 μM PARP inhibitor (Rucaparib)
  HDR: significantly reduced HDR in TrLR reporter cells
U2OS-STING cells
  DNA damage-induced RAD51 and RPA foci formation: suppressed DNA damage-induced RAD51 and RPA foci formation in EdU-positive S-phase cells
Cell cycle progression; THP1 10 μM Rucaparib (propidium iodide), U2OS-STING (EdU)
  abundance of S/G2-phase cells: causes increased abundance of S/G2-phase cells

## Pam3CSK4
DDR signaling [3]; WT primary MEF, Pam3CSK4 500 ng/ml 6 hours, HT-DNA 4 ug/6-well 6 hours, 5′ppp-dsRNA 0.5 μg/6 well 6 hours, cGAMP 16 hours
  DDR activation (γH2AX): failed to stimulate the DDR

Reference: patent US20240335465A1 (University of Virginia Patent Foundation, priority 2021, published 2024)
